Assay results: patent US20260091136A1, “USING ENHO GENE THERAPY TO TREAT CARDIOMETABOLIC DISEASE” (University of Pittsburgh-of the Commonwealth System of …, priority 2023, published 2026)
“Also recorded” adds a separate entry of the source.

Columns and labels:
diabetic mice = details: cited from earlier work
HFpEF mice = assay: Echocardiography, cohort 2; assay type: in vivo, C57BL/6J mice; details: HFpEF mice treated with Adropin 450 nmol/kg daily i.p.
Text: Twelve week-old C57BL/6J wild-type male mice were exposed to normal chow, or a combination of 60% high fat diet plus N^ω-nitro-L-arginine methyl ester (L-NAME: 0.5 g/L in drinking water) to induce HFpEF. After 8 weeks of diet, mice were randomly assigned to a control HFpEF group, or to a group receiving daily intraperitoneal injections of recombinant Adropin (450 nmol/kg) for the remaining weeks of the study. All animal experiments were approved by the University of Pittsburgh Institutional Animal Care and Use Committee. […] These changes occurred in the absence of systolic dysfunction (FIG. 6). Each marker of cardiac dysfunction was absent in HFpEF mice treated with Adropin (FIG. 6).
Animal Care and Use. Male C57BL/6J 8-week-old mice were obtained from the Jackson Laboratory and maintained on chow for 4 weeks to acclimate to their new environment. […]
Echocardiography. Mice were anesthetized using isofluorane (1.5%-2.0% v/v by inhalation) and monitored for cardiac functional parameters in the supine position using a Visual Sonics Vevo 3100. […] The left atrial area was quantified in the apical 4-chamber view by tracing the border of the left atrium. Markers of systolic and diastolic function were calculated using standard echocardiography equations. […] Image analysis was performed independently by a blinded sonographer and all parameters were measured at least 3 times, and averages are presented.

[1] = tested on: hexosamine biosynthesis pathway (HBP); assay: Metabolomics of hearts, HFpEF vs HFpEF+Adropin; assay type: in vivo, C57BL/6J mice; details: heart; for cardiac hexose and pyruvate levels: Adropin-treated HFpEF mice; for hexosamine biosynthesis pathway (metabolites related to UDP-GlcNAc biosynthesis), untargeted BioCyc pathway analysis: vehicle-treated vs adropin-treated HFpEF groups
Text: Animal Care and Use. Male C57BL/6J 8-week-old mice were obtained from the Jackson Laboratory and maintained on chow for 4 weeks to acclimate to their new environment. Animals were housed in the University of Pittsburgh animal facility under standard conditions with ad libitum access to water and food and maintained on a constant 12-hour light/dark cycle. At 12 weeks of age, the mice were exposed to normal chow (Chow; 60% carbohydrate, 26% protein, 14% fat), or a combination of high-fat diet (HFD; 20% carbohydrate, 20% protein, 60% fat) plus No-nitro-L-arginine methyl ester (L-NAME: 0.5 g/L) supplemented in their drinking water after adjusting the pH to 7.4 with 1N NaOH to induce HFpEF [10]. For cohort 1, the mice were subject to the HFpEF diet for 15 weeks. For cohort 2, after 8 weeks of diet, mice were randomly assigned to a control or treatment group receiving daily intraperitoneal injections of either vehicle or recombinant adropin at 450 nmol/kg animal weight prepared in PBS with 0.1% BSA for the remaining 5 weeks of the study. L-NAME supplemented drinking water was changed weekly and adropin was made fresh and sterile filtered before each use.
Quantitative Metabolomics. Metabolic quenching and polar metabolite pool extraction was performed by adding ice cold 80% methanol (aqueous) at a ratio of 1:15 wt input tissue:vol. (13 C1)-creatinine, (D3)-taurine, (D3)-lactate and (D3)-alanine were added to the sample lysates as an internal standard for a final concentration of […]. Samples are homogenized using an MP Bio FastPrep system using Matrix D (ceramic sphere) for 60 seconds at 60 hz. The supernatant was then cleared of protein by centrifugation at 16,000 g. 2 μL of cleared supernatant was subjected to online LC-MS analysis. Analyses were performed by untargeted liquid chromatography-high-resolution mass spectrometry (LC-HRMS). Briefly, samples were injected via a Thermo Vanquish UHPLC and separated over a reversed phase. Thermo HyperCarb porous graphite column (2.1×100 mm, […]) maintained at 55° C. For the 20 min LC gradient, the mobile phase consisted of the following: solvent A (water/0.1% FA) and solvent B (ACN/0.1% FA). The gradient was the following: 0-1 min 1% B, increase to 15% B over 5 min, continue increasing to 98% B over 5 min, hold at 98% B for five min, re-equillibrate at 1% B for five min. The Thermo IDX tribrid mass spectrometer was operated in both positive and negative ion mode, scanning in ddMS2 mode (2 scans) from 70 to 800 m/z at 120,000 resolution with an AGC target of 2e5 for full scan, 2e4 for ms2 scans using HCD fragmentation at stepped 15, 35, 50 collision energies. Source ionization setting was 3.0 and 2.4 kV spray voltage, respectively, for positive and negative mode. Source gas parameters were 35 sheath gas, 12 auxiliary gas at 320° C., and 8 sweep gas. Calibration was performed prior to analysis using the Pierce™ FlexMix Ion Calibration Solutions. Integrated peak areas were then extracted manually using Quan Browser (Thermo Fisher Xcalibur ver. 2.7). Untargeted differential comparisons were performed using Compound Discoverer 3.0 to generate a ranked list of significant compounds with tentative identifications from BioCyc, KEGG, and internal compound databases. Purified standards were then purchased and compared in retention time, m/z, along with ms2 fragmentation patterns to validate the identity of significant hits.

Substance: Adropin: recombinant Adropin peptide hormone encoded by the ENHO gene; full-length (SEQ ID NO: 1) or cleaved product of amino acids 34-76 (SEQ ID NO: 2) (CHSRSADVDSLSESSPNSSPGPCPEKAPPPQKPSHEGSYLLQP)
- vascular stiffness (diabetic mice; diet-induced obesity, previous study [9]): reduced
- hepatocellular injury in NAFLD/MAFLD (diabetic mice; exogenous adropin treatment, recent studies [34]): alleviates
- physical activity (diabetic mice; previous studies [6-8]): improved
- hepatic steatosis and injury (diabetic mice; previous studies [7, 34]): attenuated
- glucose oxidation in the hearts of diabetic mice (diabetic mice; previous work from our group): restores
- liver glucose production in diabetic mice (diabetic mice; previous work from our group): decreases
- markers of cardiac (diastolic) dysfunction: increased heart/LV mass, decreased cardiac output, increased IVRT, increased LV MPI (HFpEF mice): absent; also recorded: improved
- markers of cardiac (diastolic) dysfunction: increased heart/LV mass, decreased cardiac output, increased IVRT, increased LV MPI (HFpEF mice; listed as adropin): absent; also recorded: attenuates
- cardiac hexose and pyruvate levels [1]: trend towards decreased
- cardiac hexose and pyruvate levels ([1]; listed as adropin): trend towards restored
- abundance of metabolites used to generate UDP-GlcNAc (GlcNAc-6-P, uridine, coenzyme A) ([1]; relative to HFpEF mice): significant increase
- hexosamine biosynthesis pathway (metabolites related to UDP-GlcNAc biosynthesis), untargeted BioCyc pathway analysis [1]: major metabolomic differences; also recorded: modulated
- hexosamine biosynthesis pathway (metabolites related to UDP-GlcNAc biosynthesis), untargeted BioCyc pathway analysis ([1]; listed as adropin): major metabolomic difference; also recorded: inhibits
